The source of these data is ChEMBL document CHEMBL1140579, “Synthesis of andrographolide derivatives and their TNF-alpha and IL-6 expression inhibitory activities” (2007).

Conditions in all cases: J774.A1, 24 h
Assay [1] relates to J774.A1. As to the kind of experiment: Inhibition of LPS-induced IL6 secretion in mouse J774A.1 cells at 20 uM after 24 hrs by ELISA; values are per cent of control. In general terms: ELISA stands for enzyme-linked immunosorbent assay.
The subject of assay [2] is J774.A1. As to the kind of experiment: Inhibition of LPS-induced TNFalpha secretion in mouse J774A.1 cells at 20 uM after 24 hrs by ELISA; values are per cent of control.
Assay [3] has as its system J774.A1. Briefly: IL6 secretion in mouse J774A.1 cells at 20 uM after 24 hrs by ELISA.
Assay [4] deals with J774.A1. Briefly: Inhibition of TNFalpha secretion in mouse J774A.1 cells at 20 uM after 24 hrs by ELISA; values are per cent of control.

As for `C[C@@]12COS(=O)O[C@@H]1CC[C@@]1(C)C3CC(C4=CCOC4=O)O[C@]3(C)CC[C@H]21` (stereo partly drawn), the level, % of control at 20 µM was determined as 208% in the assay on J774.A1 [1], 231% in the assay with J774.A1 [2] and 61.8% in the assay on J774.A1 [4]. This molecule also showed a % of control at 20 µM with J774.A1 [3] of 79.7%.
For the molecule `CCCCCC(=O)O[C@@H]1CC[C@@]2(C)C3CC(C4=CCOC4=O)O[C@]3(C)CC[C@@H]2[C@]1(C)CO` (stereo partly drawn), the level, % of control at 20 µM amounted to 102% with J774.A1 [1], 106% in the assay with J774.A1 [2] and 44.4% in the assay with J774.A1 [4]. In the assay on J774.A1 [3], this molecule had a % of control at 20 µM of 69.8%.
For `C=C1CC[C@@H]2[C@](C)(CO)[C@H](O)CC[C@@]2(C)[C@@H]1CC(OC(=O)CC)C1=CCOC1=O` (stereo partly drawn) the same measures were 74.7%, 96.9%, 70% and 82.6%.
For `C=C1CC[C@@H]2[C@](C)(CO)[C@H](O)CC[C@@]2(C)[C@@H]1CC(OC(=O)CCCCC)C1=CCOC1=O` (stereo partly drawn) the same measures were 46.6%, 76%, 79.6% and 82.9%.
The matching figures for `C=C1CC[C@@H]2[C@](C)(CO)[C@H](O)CC[C@@]2(C)[C@@H]1CC(OC(=O)c1ccccc1)C1=CCOC1=O` (stereo partly drawn): 37.5%, 60.8%, 92.9% and 82%.
Regarding `C=C1CC[C@@H]2[C@](C)(CO)[C@H](O)CC[C@@]2(C)[C@@H]1CC(OC(=O)c1ccc(C)cc1)C1=CCOC1=O` (stereo partly drawn), the level, % of control at 20 µM with J774.A1 [1] was 32.1%; in the assay on J774.A1 [2] it was 41.6%; in the assay on J774.A1 [4], 152%. For the same molecule, the % of control at 20 µM in the assay on J774.A1 [3] worked out at 128%.
The matching figures for `C=C1CC[C@@H]2[C@](C)(CO)[C@H](O)CC[C@@]2(C)[C@@H]1CC(OC(=O)C/C=C/c1ccc2c(c1)OCO2)C1=CCOC1=O` (stereo partly drawn): 56.9%, 61%, 149% and 96%.
For `CCC(=O)OC[C@@]1(C)[C@H]2CC[C@@]3(C)OC(C4=CCOC4=O)CC3[C@]2(C)CC[C@H]1OC(=O)CC` (stereo partly drawn) the same measures were 110%, 115%, 82.8% and 60.5%.
For `C[C@]1(COC(=O)C(=O)CCC(=O)O)[C@H]2CC[C@@]3(C)OC(C4=CCOC4=O)CC3[C@]2(C)CC[C@H]1OC(=O)C(=O)CCC(=O)O` (stereo partly drawn) the same measures were 114%, 129%, 81.7% and 55%.
On to `C=C1CC[C@@H]2[C@](C)(CO)[C@H](O)CC[C@@]2(C)[C@@H]1CC(OC(C)=O)C1=CCOC1=O` (stereo partly drawn), for which the level, % of control at 20 µM stood at 44.7% in the assay on J774.A1 [1], 62.7% in the assay with J774.A1 [2] and 107% in the assay with J774.A1 [4]. For the same molecule, the % of control at 20 µM with J774.A1 [3] was 95.1%.
As to `CCCCCC(=O)OC[C@@]1(C)[C@H]2CC[C@@]3(C)OC(C4=CCOC4=O)CC3[C@]2(C)CC[C@H]1OC(=O)CCCCC` (stereo partly drawn), the level, % of control at 20 µM in the assay with J774.A1 [1] was 85.2%; with J774.A1 [2], 43.8%; in the assay on J774.A1 [4] it was 35.7%. In the assay on J774.A1 [3], this molecule returned a % of control at 20 µM of 31.4%.
Regarding `C=C1CC[C@@H]2[C@](C)(CO)[C@H](O)CC[C@@]2(C)[C@@H]1CC(OC(=O)c1ccc([N+](=O)[O-])cc1)C1=CCOC1=O` (stereo partly drawn), the figures for the level, % of control at 20 µM with J774.A1 [1], with J774.A1 [2] and in the assay on J774.A1 [4] were 29.2%, 60% and 65.8%, respectively. The molecule further registered a % of control at 20 µM in the assay on J774.A1 [3] of 58.6%.
The matching figures for `C[C@]1(COC=O)[C@H]2CC[C@@]3(C)OC(C4=CCOC4=O)CC3[C@]2(C)CC[C@H]1OC(=O)c1ccccc1` (stereo partly drawn): 85.7%, 36.5%, 28.5% and 27.7%.
Turning to `C=C1CC[C@@H]2[C@](C)(CO)[C@H](O)CC[C@@]2(C)[C@@H]1CC(OC(=O)c1cc2c(cc1[N+](=O)[O-])OCO2)C1=CCOC1=O` (stereo partly drawn), the level, % of control at 20 µM with J774.A1 [1] is 44.6%; in the assay on J774.A1 [2] it was 94.4%; in the assay on J774.A1 [4], 115%. This molecule came in with a % of control at 20 µM in the assay on J774.A1 [3] of 70.1%.
For `CC(=O)OC[C@@]1(C)[C@H]2CC[C@@]3(C)OC(C4=CCOC4=O)CC3[C@]2(C)CC[C@H]1OC(C)=O` (stereo partly drawn) the same measures were 150%, 99.4%, 80% and 72.9%.
The matching figures for `C[C@]1(COC(=O)c2ccccc2)[C@H]2CC[C@@]3(C)OC(C4=CCOC4=O)CC3[C@]2(C)CC[C@H]1OC(=O)c1ccccc1` (stereo partly drawn): 107%, 294%, 204% and 48.2%.
For `C=C1CC[C@@H]2[C@](C)(CO)[C@H](O)CC[C@@]2(C)[C@@H]1C/C=C1/C(=O)OC[C@H]1O` [ANDROGRAPHOLIDE] the same measures were 56%, 62.5%, 63.9% and 49.2%.
